The values below come from paper PMC2626250 (Toxicology and applied pharmacology, 2008).

One data set has as its system EtaA. The note with it: pH 7.5; cited from earlier work.
The conditions of data set [1]: oral administration of therapeutic doses; ref Conte et al., 2000; cited from earlier work.
In the next data set the test system is mFmos and hFMOs. The note with it: 4 mM GSH added following 15 minutes of incubation; 200 μM ETA.
Another data set has as its system mouse lung microsomes. Kind of data set: Effect of inhibitors on S-oxidation of ETA by mouse lung microsomes. It counts as in vitro ADME. The note with it: 200 μM ETA.
The subject of the next data set is mouse liver microsomes. The data set is described as follows: Effect of inhibitors on S-oxidation of ETA by mouse liver microsomes. As to conditions: 200 μM ETA. The data set is classed as in vitro ADME. For orientation: Microsomes from liver hold many membrane-bound enzymes, among them those of drug oxidation.

On to `CCc1cc(C(N)=S)ccn1` [ETA, ethionamide], for which the “specificity constant for the formation of ETASO” value in the data set on EtaA is reported as 0.04. In data set [1], the “concentration of ETA in human plasma” value is recorded as “approximately 6 μM”, the “concentration of ETA in lung alveolar cells” value was ~2.4 µM and the “concentration of ETA in lung epithelial lining fluid” value is ~35 µM.
As to `N[C@@H](CCC(=O)N[C@@H](CS)C(=O)NCC(=O)O)C(=O)O` [GSH, Glutathione], the ETASO removed in the data set with mFmos and hFMOs was ~50%.
On to `CCCC(C(=O)OCCN(CC)CC)(c1ccccc1)c1ccccc1` [SKF-525A], for which the “activity remaining (appearance of ETASO)” value is on record as 102.4% in the data set with mouse lung microsomes (SKF-525A 1 mM) and 82.9% in the data set on mouse liver microsomes (SKF-525A 1 mM).
For the compound `NC(N)=S` [thiourea], the “reduction of ETA oxygenation to ETASO” value in the data set with mouse lung microsomes (thiourea 200 μM, average) is 76.9%; in the data set with mouse liver microsomes (thiourea 200 μM, average), 73.5%.
